From publication PMC2858705 (PLoS Pathogens, 2010)
“And” between values parts separate entries of the source, which are not always exact repeats. Equal values may be shown once. Read-outs that look alike come from different tables or passages of the source.

Tests used:
[1] = molecular target: SARS-CoV nsp14 N7-MTase (Severe acute respiratory syndrome coronavirus, UniProt P0C6X7); experiment: biochemical; type: biochemical
[2] = test system: SARS-CoV; conditions: infected cells; cited from earlier work
[3] = molecular target: SARS-CoV nsp10/nsp16 2'O-MTase (Severe acute respiratory syndrome coronavirus, UniProt P0C6X7); experiment: biochemical; type: biochemical
[4] = molecular target: VV:N7-MTase; conditions: cited from earlier work
[5] = molecular target: VV:2'O-MTase; conditions: cited from earlier work
[6] = molecular target: DV:NS5MTase; conditions: read-out: IC50 2'O-MTase activity of DV:NS5MTase; cited from earlier work

O=C(O)C1=CC(=C(c2ccc(O)c(C(=O)O)c2)c2ccc(O)c(C(=O)O)c2)C=CC1=O [ATA, aurintricarboxylic acid]
IC50 N7-MTase activity of nsp14 [1]: micromolar range
inhibition of nsp14 N7-MTase at 100 µM (in words) [1]: efficiently inhibited
IC50 ([1]; IC50 N7-MTase activity of nsp14): 6400 nM and 2100 nM
inhibition of SARS-CoV replication [2]: inhibit SARS-CoV replication
IC50 2'O-MTase activity of nsp10/nsp16 [3]: micromolar range
inhibition of nsp16/nsp10 2'O-MTase at 100 µM (in words) [3]: efficiently inhibited
IC50 ([3]; IC50 2'O-MTase activity of nsp10/nsp16): 2100 nM and 6400 nM

Nc1ncnc2c1ncn2[C@@H]1O[C@H](CSCC[C@H](N)C(=O)O)[C@@H](O)[C@H]1O [AdoHcy, S-adenosyl-l-homocysteine]
Ki [4]: 1000 nM
inhibition of nsp14 N7-MTase at 100 µM (in words) [1]: efficiently inhibited
IC50 ([1]; read-out: IC50 N7-MTase activity of nsp14): 16000 nM
Ki [5]: 500 nM
inhibition of nsp16/nsp10 2'O-MTase at 100 µM (in words) [3]: efficiently inhibited
IC50 ([3]; read-out: IC50 2'O-MTase activity of nsp10/nsp16): 12000 nM

Nc1nc2c(ncn2[C@@H]2O[C@H](COP(=O)(O)OP(=O)(O)OP(=O)(O)OC[C@H]3O[C@@H](n4cnc5c(N)ncnc54)[C@H](O)[C@@H]3O)[C@@H](O)[C@H]2O)c(=O)[nH]1 [GpppA]
inhibition of nsp14 N7-MTase at 100 µM [1]: 50%
inhibition of nsp16/nsp10 2'O-MTase at 100 µM [3]: 50%

Cn1c[n+]([C@@H]2O[C@H](COP(=O)(O)OP(=O)(O)OP(=O)(O)OC[C@H]3O[C@@H](n4cnc5c(N)ncnc54)[C@H](O)[C@@H]3O)[C@@H](O)[C@H]2O)c2nc(N)[nH]c(=O)c21 [^7MeGpppA]
inhibition of nsp14 N7-MTase at 100 µM [1]: 50%
inhibition of nsp16/nsp10 2'O-MTase at 100 µM [3]: 50%

Nc1ncnc2c1ncn2[C@@H]1O[C@H](C[C@@H](N)CC[C@H](N)C(=O)O)[C@@H](O)[C@H]1O [sinefungin, adenosyl-ornithine]
IC50 [4]: 12 nM
IC50 [5]: 39.5 nM
IC50 [6]: 420 nM and 630 nM
